# Measurements from paper PMC10817170, “Effect of an NHE3 inhibitor in combination with an NPT2b inhibitor on gastrointestinal phosphate absorption in Rodent models” (PLOS ONE, 2024).
# Tests used:
# Type in all cases: in vivo
# NHE3 = test system: T1, NHE3; assay: Sodium excretion in urine after oral NaH2PO4 bolus in mice; conditions: sodium bolus plus 3 mg/kg po, urine 4 h, mean ± SEM
# T1 construct: from tissue; host or cells: intestine of living C57Bl/6 mice
# Protocol: The effect of LY3304000 on sodium and phosphate excretion in urine was also assessed in mice. A dosing solution of 3 mg/kg LY3304000 for a 10 mL/kg dose volume was formulated in 1% HEC. An NaH2PO4 dosing solution at a 690 mg/kg with a […] dosing volume was made in sterile water. Male C57Bl/6 mice were fasted for 4 hours with access to water and then orally dosed at 10 mL/kg with 1% HEC vehicle or 3 mg/kg LY3304000. Fifteen minutes later, mice were orally dosed with either sterile water or NaH2PO4 solution, and then immediately transferred to a mouse holder on a 96-well plate for spot urine collection. Urine samples were collected for 4 hours post sterile water or NaH2PO4 dose. Urinary sodium, creatinine, and phosphorus (as a measure of phosphate) were determined using a clinical biochemistry analyzer. The urinary sodium-to-creatinine ratio was calculated and compared between vehicle and LY3304000 treated groups.
# [1] = test system: acute phosphate uptake into plasma; assay: Acute phosphate uptake in rats, LY3304000 with fixed 1.2 mg/kg LY3358966
# Protocol: NHE3 inhibitor LY3304000 and NPT2b inhibitor LY3358966 SDD were used in combination to assess their effect on phosphate absorption in rats. To make the LY3358966 dosing solution, an appropriate amount of LY3358966 SDD was weighed for a 1.2 mg/kg API dosing solution with 10 mL/kg dosing volume and dissolved in water. To make the LY3304000 dosing solution, an appropriate amount of LY3304000 was weighed for a 10 mg/kg dose with 10 mL/kg dosing volume and dissolved in 1% HEC vehicle. The subsequent dosing solutions for 3, 1, 0.3, 0.1, 0.03, 0.01, 0.003, and 0.001 mg/kg LY3304000 were prepared by serial dilutions with 1% HEC. Following 12-hour fasting, male SD rats were orally dosed at 10 mL/kg with 1% HEC vehicle, 1.2 mg/kg LY3358966 or increasing doses of LY3304000 with a fixed, 1.2 mg/kg dose of LY3358966. In the vehicle group, the animals were dosed first with 1% HEC immediately followed by water. In the LY3358966 alone group, the animals were first dosed with 1% HEC immediately followed by LY3358966. In the combination groups, the animals were dosed first with LY3304000 immediately followed by LY3358966. Fifteen minutes later, 2 mL Radiolabeled Phosphate Dosing Solution was orally dosed. Fifteen minutes later, blood was collected by cardiac stick, and plasma was prepared. Radioactivity (dpm) in 50-μL plasma was measured by scintillation counting. To measure the total radioactivity dosed to each rat, the radioactivity in two 10-μL samples of the Radiolabeled Phosphate Dosing Solutions was measured by scintillation counting. The mole amount of phosphate uptake was calculated as described above to determine acute phosphate uptake.
# [2] = test system: acute phosphate uptake into plasma; assay: Acute radiolabeled phosphate uptake into plasma in mice
# Protocol: A dosing solution for a 10 mg/kg dose of LY3304000 using a 10 mL/kg dosing volume was made in 1% HEC vehicle. The subsequent dosing solutions for 3, 1, 0.3, 0.1, 0.03, 0.01, 0.003, and 0.001 mg/kg were prepared by serial dilutions with HEC. A Radiolabeled Phosphate Dosing Solution was made in a 16.25 mM Na2HPO4, 0.9% saline, pH 7.4, solution with the addition of about 2.5 μCi/mL radioactive phosphate (H3^33PO4, PerkinElmer) and filtered before dosing. Following 12-hour fasting with access to water, male SD rats were orally dosed at 10 mL/kg with either vehicle or varying doses of LY3304000. Fifteen minutes later, 2 mL of the Radiolabeled Phosphate Dosing Solution was dosed by oral gavage. This dose of phosphate was chosen because it approximates the rat equivalent to the amount of bioavailable phosphate in a human meal, 4 mg/kg phosphorus, or 320 mg phosphorus for an 80 kg person on a phosphate restricted diet. Fifteen minutes later, blood was collected by cardiac stick, and plasma was prepared. Radioactivity (dpm) in 50 μL plasma was measured by scintillation counting. To determine the total radioactivity dosed to each rat, the radioactivity in two 10-μL samples of the Radiolabeled Phosphate Dosing Solution was measured by scintillation counting. To calculate the total radioactivity recovered in plasma, it was assumed that total blood volume constitutes about 60% of the body weight and plasma constitutes about 55% of the total blood. The mole amount of phosphate uptake was calculated as the percentage of administered radiolabeled phosphate recovered in the plasma of vehicle or LY3304000 treated rats multiplied by total phosphate amount in the radiolabeled phosphate dosing solution. ED50 values were then determined with a 4-parameter logistic curve fitting model using GraphPad Prism. A 15-minute time point, post phosphate dosing, was chosen for collecting blood in the acute phosphate uptake studies in rats and mice (see below) to capture the initial rate of phosphate absorption. We wanted to avoid measurements at longer time points when plasma radiolabeled phosphate appears to be at a steady state. LY3304000 dosing solution and Radioactive Phosphate Dosing Solution were made as described above. Following 12-hour fasting with access to water, male C57Bl/6 mice were dosed orally at 10 mL/kg with either vehicle or varying doses of LY3304000. Fifteen minutes later, 200 μL of the Radiolabeled Phosphate Dosing Solution was dosed by oral gavage. Fifteen minutes later, blood was collected by cardiac stick, and plasma was prepared. The measurement of acute phosphate uptake was determined as described above for rats.
structure (smiles),measurement,setting,value
"CN1Cc2c(Cl)cc(Cl)cc2[C@H](c2cccc(S(=O)(=O)NCCOCCOCCN/C(=N\C(N)=O)NCCCCN/C(=N/C(N)=O)NCCOCCOCCNS(=O)(=O)c3cccc([C@@H]4CN(C)Cc5c(Cl)cc(Cl)cc54)c3)c2)C1.Cl.Cl [LY3304000, (Z)-[[4-[[(Z)-N’-carbamoyl-N-[2-[2-[2-[[3-[(4S)-6,8-dichloro-2-methyl-3,4-dihydro-1H-isoquinolin-4-yl]phenyl]sulfonylamino]ethoxy]ethoxy]ethyl]carbamimidoyl]amino]butylamino]-[2-[2-[2-[[3-[(4S)-6,8-dichloro-2-methyl-3,4-dihydro-1H-isoquinolin-4-yl]phenyl]sulfonylamino]ethoxy]ethoxy]ethylamino]methylene]urea dihydrochloride]",Urinary sodium-to-creatinine ratio,NHE3,14.6 ± 1.7 mg/mg
same,"acute phosphate uptake, % of vehicle control",[1]; highest dose of LY3304000 plus 1.2 mg/kg LY3358966,30%
same,acute phosphate uptake into plasma,"[1]; highest dose of LY3304000 tested plus 1.2 mg/kg LY3358966, vehicle 710 nmoles",212 nmol
same,ED50,"[2]; Mus musculus, po, 0.25 h, oral, plasma 15 min post 33P phosphate, read-out: ED50 (increase of phosphate uptake)",0.48 mg/kg
same,"Emax, Pi uptake",[2]; curve fit,80.01 nmol
same,radiolabeled phosphate recovered in plasma,"[2]; highest doses tested, vehicle 39 nmoles",78 nmol
same,ED50 (increase of phosphate uptake),"[2]; oral, plasma 15 min post 33P phosphate",0.479 mg/kg
